Experimental data reported in patent US20120020915A1, “Compounds and Methods for Treating Cancer and Diseases of the Central Nervous System” (QUEENS UNIVERSITY AT KINGSTON, priority 2007, published 2012).

Key:
[1] = system: CD31-positive vessels in SKMEL-V+ tumors; assay: CD31 immunohistochemistry / microvessel density of SKMEL-V+ tumors; format: in vivo, Mouse (Mus musculus), male SCID; conditions: QC-56 particularly at 60 mg/kg
Description: Cell cultures were maintained in 5% CO2/95% air at 37° C. SKMEL-V (human melanoma cells). SKMEL-V cells were derived from SKMEL-24 cells (ATCC) by overexpression of mouse VEGF. […] Tumors were either snap frozen in liquid nitrogen or fixed in 10% buffered formalin and embedded in paraffin. […] BD PharMingen, San Diego, Calif.). […] Sections were rehydrated in PBS and then blocked with 5% normal goat serum for 1 h. The sections were then incubated overnight at 4° C. with CD31 antibody diluted 1:25 in 3% BSA-PBS. […] Paraffin-embedded material was used for Harris' hematoxylin. Microvessel density was quantified using a method described by Weidner et al ([…], and Folkman […]. Med, 1991; 324:1-8). Briefly, randomly vascularized areas were selected (hot spots) under 40× field and 100× fields. Then a 400× field was used to count microvessels in each of these areas. Single endothelial cells or clusters of endothelial cells with or without lumen were considered to be individual vessels. […] All slides were examined blindly with no prior knowledge of the treatment status.

[2] = system: B16-BL6 cells (mouse melanoma); assay: Metastatic B16-BL6 melanoma model, lung surface metastases; format: in vivo; conditions: vehicle control: 101
Description: B16-BL6 cells (mouse melanoma). B16-BL6 metastatic variant was derived from B16-F10. This cell variant was obtained from Dr. Linda D. Williams, Dept. of Cancer Biology, MD Anderson Cancer Center, Texas, USA. […] Cells were maintained at 37° C. in a humidified atmosphere (5% CO2, 95% air).
(§1) Control groups received the vehicle alone.

[3] = system: cultured rat astroglia; conditions: cited from earlier work; for mitochondrial iron accumulation in astroglia transfected with human ho-1 gene: transient transfection
[4] = format: in vivo; conditions: QC-56 60 mg/kg ip, 4 cycles; chemotherapy drugs ip
Excerpt: as §1

[5] = system: vascular smooth muscle cells (VSMC); conditions: exposure of VSMC; cited from earlier work
[6] = system: HCT-116 colorectal carcinoma; assay: Colorectal carcinoma model HCT-116 in SCID mice, tumor growth delay; format: in vivo, Mouse (Mus musculus); male SCID; conditions: dosage of 60 mg/kg
Excerpt: as §1

[7] = target: T1, HO-1 (rat spleen) (Rattus norvegicus, UniProt P06762); assay: HO enzymatic activity, rat spleen microsomal fraction (CO formation from methemalbumin); format: biochemical; conditions: CO formation from methemalbumin, mean ± SD of replicate experiments, read-out: IC50 HO-1 (rat spleen/μM)
T1 construct: Spleen microsomes were used as a source of HO-1; from tissue; host or cells: spleen microsomal fraction of adult male Sprague-Dawley rats
T1 sequence (P06762 1-289): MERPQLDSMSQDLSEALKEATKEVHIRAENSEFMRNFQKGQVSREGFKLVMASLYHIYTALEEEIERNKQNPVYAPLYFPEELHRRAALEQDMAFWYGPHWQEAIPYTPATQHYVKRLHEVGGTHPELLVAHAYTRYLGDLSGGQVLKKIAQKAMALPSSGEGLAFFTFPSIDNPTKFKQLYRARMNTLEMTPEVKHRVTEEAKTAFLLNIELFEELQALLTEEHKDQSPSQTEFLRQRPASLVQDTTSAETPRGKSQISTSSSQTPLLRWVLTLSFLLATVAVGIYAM

[8] = target: T2, HO-2 (rat brain) (Rattus norvegicus, UniProt P23711); assay: HO enzymatic activity, rat brain microsomal fraction (CO formation from methemalbumin); format: biochemical; conditions: IC50 HO-2 (rat brain)/μM), CO formation from methemalbumin, mean ± SD of replicate experiments
T2 construct: brain microsomes were used as a source of HO-2; from tissue; host or cells: brain microsomal fraction of adult male Sprague-Dawley rats
T2 sequence (P23711 1-315): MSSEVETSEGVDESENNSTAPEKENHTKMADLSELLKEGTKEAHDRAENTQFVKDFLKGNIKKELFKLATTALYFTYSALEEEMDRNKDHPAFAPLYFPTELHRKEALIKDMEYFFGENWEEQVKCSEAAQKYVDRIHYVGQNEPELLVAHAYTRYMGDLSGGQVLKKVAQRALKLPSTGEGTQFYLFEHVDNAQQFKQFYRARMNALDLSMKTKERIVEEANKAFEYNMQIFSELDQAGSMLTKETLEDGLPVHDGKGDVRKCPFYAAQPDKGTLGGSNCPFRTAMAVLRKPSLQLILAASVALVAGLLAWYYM

## CN(C)/N=N/c1[nH]cnc1C(N)=O [Dacarbazine, reference compound]
[1]
  vessel count / tumor vascularization (CD31): minor effect

## N.N.[Cl][Pt][Cl] [cisplatin, cis-diaminedichloroplatinum(II), reference compound]
[2]
  macroscopic nodules in the lungs (average): 60 nodules

## CCC1=C(C)c2cc3[n-]c(cc4[n-]c(cc5nc(cc1n2)C(C)=C5CC)c(C)c4CCC(=O)O)c(CCC(=O)O)c3C.[Cl-].[Cl-].[Sn+4] [SnMP]
[3]
  mitochondrial iron accumulation in astroglia transfected with human ho-1 gene: abolished the pathological accumulation of mitochondrial ^55Fe

## C[C@@H]1C[C@H]2[C@@H]3CCC4=CC(=O)C=C[C@]4(C)[C@@]3(F)[C@@H](O)C[C@]2(C)[C@@]1(O)C(=O)CO [dexamethasone]
[3]; dexamethasone 50 μg/mL
  mitochondrial iron sequestration in astrocytes exposed to β-amyloid, TNFα or IL-1β: significantly attenuated mitochondrial iron sequestration
[3]
  mitochondrial iron accumulation in astroglia transfected with human ho-1 gene: abolished the pathological accumulation of mitochondrial ^55Fe

## CC(=O)O[C@H]1C(=O)[C@@]2(C)[C@H]([C@H](OC(=O)c3ccccc3)[C@]3(O)C[C@H](OC(=O)[C@H](O)[C@@H](NC(=O)c4ccccc4)c4ccccc4)C(C)=C1C3(C)C)[C@]1(OC(C)=O)CO[C@@H]1C[C@@H]2O [Taxol™, paclitaxel, reference compound]
[4]
  toxicity in the combination study: induced some loss of body weights/mortality
[5]
  HO-1 expression and activity: dose and time dependent increase in HO-1 expression and activity

## O=c1[nH]cc(F)c(=O)[nH]1 [5-FU, Fluorouracil, reference compound]
[6]
  mortality: induced mortality

## Cl.O=C(Cn1ccnc1)C12CC3CC(CC(C3)C1)C2 [QC-82, 1-(adamantan-1-yl)-2-imidazol-1-yl-ethanone hydrochloride]
[7]
  IC50: 3 ± 1 µM
[8]
  IC50: > 100 µM
other
  melting point: 261 to 262 °C
